Columns and labels:
Assay type in all cases: in vivo
Details in all cases: alone
[1] = system: Western plant bug, Lygus hesperus; assay: Treated bean piece bioassay against third-instar nymphs of Western plant bug
Text: (§1) The method described in Colby S. R., “Calculating Synergistic and Antagonistic Responses of Herbicide Combinations,” Weeds, 1967, 15, 20-22 was used to determine an existence of synergic effect between the chloride channel activator compound and the pesticide (I), (II), or any agriculturally acceptable salt thereof in the formulated pesticidal composition. In this method, the percent insect control of the formulated pesticidal composition as observed in the study was compared to the “expected” percent control (E) as calculated by equation (1) (hereinafter “Colby's equation”) below: […]
The active compounds were formulated in a 10% acetone solution with 0.025% non-ionic surfactant, TWEEN® 20. Bioassays were performed for each different active solution. Bean pieces (about one inch-long) were used for the tests. Four bean pieces were placed in each tested active solution and left there for 10 minutes. Bean pieces were taken out of the active solution, and each piece was placed in a well in a 32-well tray and allowed to air dry. Three third-instar nymphs of Western plant bug, Lygus hesperus, were infested into each well. The percent control of the pesticidal composition against Lygus hesperus bug was determined as the “Observed” action, and compared to those obtained by using about 0.04 weight % of compound I, and using about 0.20 weight % of emamectin benzoate alone. The “Colby's Expected Action” was calculated using Colby's equation as discussed previously.

[2] = system: diamondback moth, Plutella xylostella; assay: Cabbage plant track-sprayer bioassay against second instar diamondback moth
Text: as §1
Bioassays were performed for different active compounds. Cabbage plants with about two to three new-growth-true leaf stage were treated with different active compounds using a track sprayer application at 400 L/Ha spray volume. Three second instar diamondback moth, Plutella xylostella, were infested onto each leaf disc. The percent control of the pesticidal composition against diamondback moth, Plutella xylostella, was determined as the “Observed” action, and compared to those obtained by using about 0.0025 weight % of compound II, and using about 0.000078 weight % of emamectin benzoate alone. The “Colby's Expected Action” was calculated using Colby's equation as discussed previously.
Bioassays were performed wherein different active compounds were tested against diamondback moth, Plutella xylostella, using the procedure described in example 5A.

[3] = system: South American brown stink bug, Euschistus heros; assay: Treated bean piece bioassay against third-instar nymphs of South American brown stink bug
Text: as §1
The active compounds were formulated in a 10% acetone solution with 0.025% non-ionic surfactant, TWEEN® 20. Bioassays were performed for each different active solution. Bean pieces (about one inch-long) were used for the tests. Four bean pieces were placed in each tested active solution and left there for 10 minutes. […]
The percent control of the pesticidal composition against South American brown stink bug, Euschistus heros, was determined as the “Observed” action, and compared to those obtained by using about 0.04 weight % of compound I, and using about 0.000156 weight % of emamectin benzoate alone. The “Colby's Expected Action” was calculated using Colby's equation as discussed previously.

| Compound | % Control Three Days After Treatment ([1]; dose rate 0.04 weight %) | % Control Three Days After Treatment ([1]; dose rate 0.04 weight %, listed as compound I) | % Control Three Days After Treatment ([2]; dose rate 0.000625 weight %) | % Control Four Days After Treatment ([3]; dose rate 0.04 weight %) | % Control Three Days After Treatment ([1]; dose rate 0.20 weight %) | % Control Three Days After Treatment ([1]; dose rate 0.20 weight %, listed as emamectin benzoate) | % Control Three Days After Treatment ([2]; dose rate 0.000039 weight %) | % Control Three Days After Treatment ([2]; dose rate 0.000078 weight %) | % Control Four Days After Treatment ([3]; dose rate 0.000156 weight %) |
| --- | --- | --- | --- | --- | --- | --- | --- | --- | --- |
| CCN(C(=O)CCSCCC(F)(F)F)c1cn(-c2cccnc2)nc1Cl [Compound I, N-(3-chloro-1-(pyridin-3-yl)-1H-pyrazol-4-yl)-N-ethyl-3-((3,3,3-trifluoropropyl)thio)propanamide] | 0% | no control | no control | 8% |  |  |  |  |  |
| emamectin benzoate |  |  |  |  | 0% | no control | 73.91% | 91.3% | 25% |

— patent publication US9497967B2, “Synergistic pesticidal compositions and related methods” (Dow AgroSciences LLC, priority 2013, dated 2016)
